Key:
Assay type in all cases: in vivo, C57BI/6J mice
[1] = Bleomycin IPF model: body weight and mortality; set-up: Mean Body Weight Change: unit not given here; conditions: for Mean Body Weight Change: Bleo + Pirfenidone (300 mg/kg) OG QOD from D7
Protocol: (§1) Male C57BI/6J mice, aged 12 weeks with an approximate weight of 25-30 g were obtained from Jackson Laboratories (Bar Harbor, ME). Animals were acclimated for two weeks prior to study initiation, and were randomized into the experimental groups outlined in Table 32.
(§2) Intratracheal (IT) administration of Bleo or PBS control was conducted at the start of the study (Day 0). […] Animals were weighed on Day 0, and indexed boluses of PBS control (Group 1) or Bleo (Groups 2-6) were delivered by IT administration.
Following administration of Bleo, animals (n=10/group) were included in the study if they met the following guidelines on Day 7: (1) a predictable 5% loss in body weight, and (2) the presence of fibrotic pulmonary lesions, detected by micro-CT imaging. 10 animals from Group 1 additionally proceeded as controls. Animals that continued in the study on Day 7 received an oral gavage (OG) administration of PBS, Compound A (1 mg/kg, 3 mg/kg, 10 mg/kg), or Pirfenidone (300 mg/kg), as outlined in Table 31 in 25 μL boluses every other day (QOD), starting on Day 7. Compound A was formulated in 5% (v/v) DMSO/15% (v/v) PEG 400/80% (v/v) E-TPGS in purified water. […]

[2] = tested on: idiopathic pulmonary fibrosis (bleomycin); assay: Bleomycin IPF model: oxygen saturation (pulse oximetry); conditions: Bleo + Pirfenidone (300 mg/kg) OG QOD from D7
Protocol: as §1, §2
(§3) Following administration of Bleo, animals (n=10/group) were included in the study if they met the following guidelines on Day 7: (1) a predictable 5% loss in body weight, and (2) the presence of fibrotic pulmonary lesions, detected by micro-CT imaging. 10 animals from Group 1 additionally proceeded as controls. Animals that continued in the study on Day 7 received an oral gavage (OG) administration of PBS, Compound A (1 mg/kg, 3 mg/kg, 10 mg/kg), or Pirfenidone (300 mg/kg), as outlined in Table 31 in 25 μL boluses every other day (QOD), starting on Day 7. Compound A was formulated in 5% (v/v) DMSO/15% (v/v) PEG 400/80% (v/v) E-TPGS in purified water.
Body weights were obtained at Day 0 at the start of the study, and again at Day 7 to determine if an animal continued in the study. Body weight was measured daily from Day 7 until Day 21, and oxygen saturation was measured by a pulse oximetry (MouseOx) system QOD from Day 7 until study completion on Day 21, and results were plotted and analyzed by Kaplan-Meier plots.

[3] = tested on: idiopathic pulmonary fibrosis (bleomycin); assay: Bleomycin IPF model: lung histology, Masson's Trichrome with Ashcroft scoring
Protocol: Animals were acclimated for two weeks prior to study initiation, and were randomized into the experimental groups outlined in Table 32. Intratracheal (IT) administration of Bleo or PBS control was conducted at the start of the study (Day 0). […] Following administration of Bleo, animals (n=10/group) were included in the study if they met the following guidelines on Day 7: […] A resection of the right lung was weighed and homogenized to determine total hydroxyproline levels by colorimetric assay, and the remaining lung lysate was saved for future analyses. For the morphological assessments, the left lung was inflation-fixed at 25 cm of water pressure with 4% paraformaldehyde in PBS for 1 minute, processed, and then sectioned. Morphological analysis of the lung was conducted using H&E-stained slides. Additional histologic stains for morphological analyses included Masson's Trichrome staining with Ashcroft scoring to determine severity of fibrosis.

hydroxyproline = assay: Bleomycin IPF model: hydroxyproline content in lung lysates; set-up: Hydroxyproline Levels, Mean: unit not given here; conditions: Bleo + Pirfenidone (300 mg/kg) OG QOD from D7
Protocol: as §1, §2, §3
Animals were euthanized on Day 21 following Micro-CT imaging, and the right lung was collected for biochemical analysis, and the left lung was inflation-fixed for morphological assessments. A resection of the right lung was weighed and homogenized to determine total hydroxyproline levels by colorimetric assay, and the remaining lung lysate was saved for future analyses.

[4] = tested on: idiopathic pulmonary fibrosis (bleomycin); assay: Bleomycin IPF model: functional lung volume by micro-CT; set-up: Functional Lung Volume, Mean: unit not given here; conditions: Day 21
Protocol: Animals were acclimated for two weeks prior to study initiation, and were randomized into the experimental groups outlined in Table 32. Intratracheal (IT) administration of Bleo or PBS control was conducted at the start of the study (Day 0). […] Following administration of Bleo, animals (n=10/group) were included in the study if they met the following guidelines on Day 7: […] Micro-CT imaging was also performed on Day 7 to determine relative fibrosis and on Day 21. […] Images were acquired with a respiratory gated technique with the following parameters: X-ray tube voltage: 90 KV; X-ray tube current: 88 μA; total scan time: 4 minutes. The system was calibrated monthly with standard phantoms for noise, uniformity, low contrast, and resolution to ensure consistency.

[5] = Bleo + Pirfenidone (300 mg/kg) OG QOD from D7

Cc1ccc(=O)n(-c2ccccc2)c1 [Pirfenidone, reference compound]
Mean Body Weight Change ([1]; Day 1): 2.308 | Mean Body Weight Change ([1]; Day 2): −0.484 | Mean Body Weight Change ([1]; Day 3): 0.051 | Mean Body Weight Change ([1]; Day 4): 4.604 | Mean Body Weight Change ([1]; Day 5): −5.992 | Mean Body Weight Change ([1]; Day 6): −9.221 | Mean Body Weight Change ([1]; Day 7): −11.372 | Mean Body Weight Change ([1]; Day 8): −14.446 | Mean Body Weight Change ([1]; Day 9): −14.694 | Mean Body Weight Change ([1]; Day 10): −15.574 | Mean Body Weight Change ([1]; Day 11): −14.209 | Mean Body Weight Change ([1]; Day 12): −13.437 | Mean Body Weight Change ([1]; Day 13): −12.258 | Mean Body Weight Change ([1]; Day 14): −12.644 | Mean Body Weight Change ([1]; Day 15): −13.627 | Mean Body Weight Change ([1]; Day 16): −13.391 | Mean Body Weight Change ([1]; Day 17): −13.251 | Mean Body Weight Change ([1]; Day 18): −15.138 | Mean Body Weight Change ([1]; Day 19): −14.921 | Mean Body Weight Change ([1]; Day 20): −15.674 | Mean Body Weight Change ([1]; Day 21): −15.557 | Body weight compared with Bleo+Saline treated animals ([1]; Compound A (all doses tested), Pirfenidone (300 mg/kg)): No significant difference | Mean Oxygen Saturation ([2]; Day 7): 81.08 | Mean Oxygen Saturation ([2]; Day 9): 84.55 | Mean Oxygen Saturation ([2]; Day 11): 83.32 | Mean Oxygen Saturation ([2]; Day 13): 84.28 | Mean Oxygen Saturation ([2]; Day 15): 87.03 | Mean Oxygen Saturation ([2]; Day 17): 87.08 | Mean Oxygen Saturation ([2]; Day 19): 89.13 | Mean Oxygen Saturation ([2]; Day 21): 89.18 | Ashcroft Scoring, Max [3, 5]: 6 | Ashcroft Scoring, Mean [3, 5]: 5.125 | Ashcroft Scoring, Min [3, 5]: 4 | Ashcroft scores relative to IPF control group ([3]; Day 21, Group 6, 300 mg/kg): significantly reduced Ashcroft scores | Fibrosis in lung tissue (Masson's Trichrome) compared to Group 2 (Bleo+Saline) ([3]; Group 5 (Compound A 10) and Group 6 (Pirfenidone)): qualitatively diminished | Hydroxyproline Levels, Mean (hydroxyproline): 0.055 | Functional Lung Volume, Mean [4, 5]: 445.7025 | Functional lung volume relative to Group 2 ([4]; Group 6, Pirfenidone 300 mg/kg): significantly increased

— patent US20260217701A1, “SELECTIVE BET INHIBITORS AND USES THEREOF” (Tay Therapeutics Limited, priority 2022, published 2026)
